Reference: ChEMBL document CHEMBL1201862, “PubChem BioAssay data set” (2004)
Calls of active or inactive are those of the source. Rule as the data show it: actives have a measured IC50 and inactives only a lower limit.

Biological target: T1, Caspase-3 (Homo sapiens, UniProt P42574)
T1 sequence (P42574 whole entry): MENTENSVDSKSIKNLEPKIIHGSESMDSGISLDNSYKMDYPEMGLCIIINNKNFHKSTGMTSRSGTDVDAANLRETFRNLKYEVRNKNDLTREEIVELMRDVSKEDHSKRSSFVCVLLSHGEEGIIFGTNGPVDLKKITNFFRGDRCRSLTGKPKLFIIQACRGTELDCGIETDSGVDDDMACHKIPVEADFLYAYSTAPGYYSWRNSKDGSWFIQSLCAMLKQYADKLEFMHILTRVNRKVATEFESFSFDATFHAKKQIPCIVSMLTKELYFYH
Format: functional
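Also: Dose-response selectivity test against caspase-3 for candidate inhibitors of sentrin-specific proteases (SENPs).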

## Cc1ccnc2ccc(-c3nc4ccccc4o3)cc12
  IC50: 5.31 µM (active)
